For the series the following is noted: particle size by volume, laser light diffraction, dry dispersion.

Structures are written as SMILES.

Excerpt: Particle size determination of Levonorgestrel
Equipment • Diffractometer of laser light, Mastersizer 3000 or equivalent • Micro analytical balance or semimicro
Weigh approximately 0.2-0.3g of the drug substance, and introduce to the dry accessory.
Dispersion Unit: MAZ3500 and cell (AD01)
Refraction index: 1.5/1.5 (red light/blue light)
Distribution Format: • Single mode • Enhanced sensitivity • Fine powder (activate)
Background run time: 10 s
Filter obscuration: 0.5-6%
Sampler settings: • Vibration feed rate: 50% • Dispersive air pressure: 2.5 bar

Compound `C#C[C@]1(O)CC[C@H]2[C@@H]3CCC4=CC(=O)CC[C@@H]4[C@H]3CC[C@@]21CC` [Ultra-micronized levonorgestel, Levonorgestrel] registered a D10 of 0.2 μm, a D50 of 1.0 μm and a D90 of 1.1 μm.
